Where two headings read alike, the source gives them in different places.
Legend:
protein hDCR1 = protein hDCR1 (Homo sapiens, UniProt Q7Z4W1); experiment: Dicarbonyl reductase activity assay: substrate specificity (NAD(P)H oxidation at 340 nm); conditions: against a reference of 100 for diacetyl
Experimental: (§1) The enzyme activity assay method is not particularly restricted, and it may be based on the activity assay method for mouse carbonyl reductase (CR) (Eur. J. Biochem. 22, 381-387(1995)). The enzyme used here was an expressed recombinant enzyme. • (a) Substrate specificity: In order to determine the substrate specificity, there may be used a hydrocarbon system including various ketone, aldehyde and ester groups, or an aromatic compound.
(§2) The reaction mixture (total: 2.0 ml) comprised an 80 mM potassium phosphate solution (pH 7.0 or 6.0), 0.1 mM NADPH or NADH and a carbonyl substrate or enzyme (50 µl) (10.1 µg or 3.7 µg of hDCR1).
The oxidation rate for NAD(P)H was measured at 340 nm.
One unit of enzyme activity was defined as that which catalyzed oxidation of 1 µmol of NAD(P)H in one minute at 25°C.

[1] = test system: dicarbonyl reductase of the invention; experiment: Substrate reactivity features summarised from Tables 1, 2 and 3; assay type: biochemical; conditions: summary in words of Tables 1, 2 and 3
protein DCR1 = protein DCR1 (Mus musculus, UniProt Q91X52); experiment: Dicarbonyl reductase activity assay: substrate specificity and rate constants (NAD(P)H oxidation at 340 nm); conditions: for substrate ranking (smallest Km values, higher catalyst efficiency Vmax/Km): mouse enzyme, Table 2, result in words
Experimental: as §1
as §2, with “• (1) This was assayed under the following conditions. The” for “The”, “glomerin B). The oxidation rate for NAD(P)H was measured at 340 nm.” for “hDCR1).”

[2] = biological target: T1, hamster liver diacetyl reductase (Hamster DR) (Mesocricetus auratus, UniProt Q91XV4); experiment: Inhibition of the enzyme reaction; assay type: biochemical; conditions: for inhibition at 1000 µM / inhibition at 100 µM: read-out: Inhibition (%) Hamster DR
T1 construct: from tissue; host or cells: hamster liver
Text: (§3) Two enzymes were used here, mouse DCR1 and hamster liver diacetyl reductase (Hamster DR).

mouse DCR1 = biological target: T2, mouse DCR1 (Mus musculus, UniProt Q91X52); experiment: Inhibition of the enzyme reaction; assay type: biochemical
T2 construct: made in house; host or cells: E. coli K12
Text: as §3

[3] = biological target: T3, dicarbonyl reductase of the invention (Mus musculus, UniProt Q91X52); experiment: Effects of metal ions and inhibitors on residual enzyme activity; assay type: biochemical; conditions: after treating the enzyme with metals and inhibitors
T3 construct: made in house; host or cells: E. coli K12
Experimental: However, since one of their substrates, NADPH, is degraded at below pH 5, activity assay is not possible in that range when NADPH is used and the peak cannot be determined. The examples were therefore carried out at near pH 7, although the optimum pH is not limited to near 7. • (7) pH stability: For example, DCR1 and hDCR1 are incubated for 3 hours at 25°C in buffer solutions with different pH values, and the residual activity is then measured and compared and recorded as relative activity with respect to the value at pH 8.0 with no incubation. • (8) Effects of metal ions and inhibitors: After treating the enzyme with different metals and inhibitors, the residual activity was evaluated.

[4] = substrate concentration 1,000 μM
[5] = substrate concentration 1,000 μM, against a reference of 100 for diacetyl
[6] = compound concentration 1 mM, read-out: Inhibition (%) CDR1
[7] = compound concentration 0.1 mM, read-out: Inhibition (%) CDR1
[8] = compound concentration 0.001 mM

Chain of protein DCR1 (Q91X52 whole entry): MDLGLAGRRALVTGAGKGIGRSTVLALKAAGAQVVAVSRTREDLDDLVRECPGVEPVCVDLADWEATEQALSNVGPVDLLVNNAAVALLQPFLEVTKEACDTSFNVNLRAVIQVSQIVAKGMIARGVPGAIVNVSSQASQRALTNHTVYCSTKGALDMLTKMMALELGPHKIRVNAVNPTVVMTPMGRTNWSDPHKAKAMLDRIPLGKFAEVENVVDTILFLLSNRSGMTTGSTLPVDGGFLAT
T2 sequence (Q91X52 whole entry): as above
Chain of protein hDCR1 (Q7Z4W1 whole entry): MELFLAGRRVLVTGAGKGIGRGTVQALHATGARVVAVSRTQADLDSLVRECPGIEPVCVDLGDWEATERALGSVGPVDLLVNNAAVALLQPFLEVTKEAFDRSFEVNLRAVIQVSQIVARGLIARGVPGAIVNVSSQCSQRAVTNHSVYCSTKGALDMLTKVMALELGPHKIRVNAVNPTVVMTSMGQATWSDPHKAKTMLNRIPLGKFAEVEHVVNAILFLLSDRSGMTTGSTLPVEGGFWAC
T1 sequence (Q91XV4 whole entry): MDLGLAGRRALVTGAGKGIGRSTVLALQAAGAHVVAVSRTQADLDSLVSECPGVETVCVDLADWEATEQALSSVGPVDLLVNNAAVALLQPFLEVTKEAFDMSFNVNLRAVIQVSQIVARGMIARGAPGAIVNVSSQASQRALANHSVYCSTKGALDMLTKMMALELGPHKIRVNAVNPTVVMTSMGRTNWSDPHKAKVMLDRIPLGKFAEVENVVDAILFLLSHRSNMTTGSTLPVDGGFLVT
T3 sequence (Q91X52 whole entry): as the sequence (Q91X52 whole entry) above

O=C(CBr)C(=O)CBr [1,4-dibromo-2,3-butanedione]
RA (%) relative activity (protein hDCR1; [4]): 133%
reactivity (as substrate) [1]: strong reactivity

CC(=O)C(=O)c1ccccc1 [1-Phenyl-1,2-propanedione]
substrate ranking (smallest Km values, higher catalyst efficiency Vmax/Km) (protein DCR1): best substrates
RA (%) relative activity (protein DCR1; [5]): 148%
RA (%) relative activity (protein hDCR1; [4]): 65%
reactivity (as substrate) [1]: strong reactivity

CCCCC(=O)C(C)=O [2,3-Heptanedione]
RA (%) relative activity (protein DCR1; [5]): 134%
RA (%) relative activity (protein hDCR1; [4]): 174%
reactivity (as substrate) [1]: strong reactivity

CCCC(=O)C(C)=O [2,3-Hexanedione]
RA (%) relative activity (protein DCR1; [5]): 108%
RA (%) relative activity (protein hDCR1; [4]): 168%
reactivity (as substrate) [1]: strong reactivity

CCC(=O)C(C)=O [2,3-Pentanedione]
RA (%) relative activity (protein DCR1): 163%
RA (%) relative activity (protein hDCR1; [4]): 167%
reactivity (as substrate) [1]: strong reactivity

CCC(=O)C(=O)CC [3,4-Hexanedione]
substrate ranking (smallest Km values, higher catalyst efficiency Vmax/Km) (protein DCR1): best substrates
RA (%) relative activity (protein DCR1; [5]): 232%
RA (%) relative activity (protein hDCR1; [4]): 170%
reactivity (as substrate) [1]: strong reactivity

NC(=O)c1ccc(O)cc1 [4-Hydroxybenzamide]
inhibition at 1000 µM [2]: 19%
inhibition at 1000 µM (mouse DCR1; read-out: Inhibition (%) CDR1): 44%

O=C1C(=O)c2cccc3cccc1c23 [Acenaphthenequinone]
RA (%) relative activity (protein DCR1; substrate concentration 25 μM, against a reference of 100 for diacetyl): 14.1%
RA (%) relative activity (protein hDCR1; substrate concentration 25 μM): 181%
reactivity (as substrate) [1]: strong reactivity

Nc1ccccc1C(=O)O [Anthranilic acid]
inhibition at 100 µM [2]: 42%
inhibition at 100 µM (mouse DCR1; read-out: Inhibition (%) CDR1): 0%

CCC1(CC)C(=O)NC(=O)NC1=O [Barbital]
inhibition at 1000 µM [2]: 5%
inhibition at 1000 µM (mouse DCR1; read-out: Inhibition (%) CDR1): 0%

NC(=O)c1ccccc1 [Benzamide]
inhibition at 1000 µM ([2]; compound concentration 1 mM): 43%
inhibition at 1000 µM (mouse DCR1; [6]): 18%

O=C(O)c1ccccc1 [Benzoic acid]
inhibition at 100 µM [2]: 59%
inhibition at 100 µM (mouse DCR1; read-out: Inhibition (%) CDR1): 32%

[Ca+2].[Cl-].[Cl-] [CaCl2]
effect on the enzyme (residual activity) [3]: virtually no effect

O=C1NC(=O)C(c2ccccc2)(c2ccccc2)N1 [Diphenlhydantoin]
inhibition at 100 µM [2]: 2%
inhibition at 100 µM (mouse DCR1; read-out: Inhibition (%) CDR1): 17%

C=C(CC)C(=O)c1ccc(OCC(=O)O)c(Cl)c1Cl [Ethacrynic acid]
inhibition at 100 µM ([2]; compound concentration 0.1 mM): 3%
inhibition at 100 µM (mouse DCR1; [7]): 0%

O=C1Nc2ccccc2C1=O [Isatin]
RA (%) relative activity (protein DCR1; substrate concentration 400 μM, against a reference of 100 for diacetyl): 106.7%
RA (%) relative activity (protein hDCR1; substrate concentration 500 μM): 252%
reactivity (as substrate) [1]: strong reactivity

CC(C)CN [Isobutylamine]
inhibition at 1000 µM ([2]; compound concentration 1 mM): 50%
inhibition at 1000 µM (mouse DCR1; [6]): 16%

O=C(O)c1ccncc1 [Isonicotinic acid]
inhibition at 100 µM ([2]; compound concentration 0.1 mM): 4%
inhibition at 100 µM (mouse DCR1; [7]): 0%

[Cl-].[Cl-].[Mg+2] [MgCl2]
effect on the enzyme (residual activity) [3]: virtually no effect

c1cn[nH]c1 [Pyrazole]
inhibition at 10000 µM ([2]; compound concentration 10 mM): 5%
inhibition at 10000 µM (mouse DCR1; compound concentration 10 mM, read-out: Inhibition (%) CDR1): 29%

COC(=O)C(C)=O [Pyruvic acid methyl ester]
RA (%) relative activity (protein DCR1; [5]): 23.3%
RA (%) relative activity (protein hDCR1; [4]): 46%

O=c1c(O)c(-c2ccc(O)c(O)c2)oc2cc(O)cc(O)c12 [Quercitin]
inhibition at 100 µM ([2]; compound concentration 0.1 mM): 33%
inhibition at 100 µM (mouse DCR1; [7]): 50%

O=C(O)CC1(CC(=O)O)CCCC1 [Tetramethyleneglutaric acid]
inhibition at 100 µM [2]: 63%
inhibition at 100 µM (mouse DCR1; read-out: Inhibition (%) CDR1): 0%

c1cnc2c(c1)ccc1cccnc12 [o-Phenanthroline]
inhibition at 1000 µM [2]: 0%
inhibition at 1000 µM (mouse DCR1; read-out: Inhibition (%) CDR1): 8%

Cibacron blue dye
Inhibition (%) Hamster DR [2, 8]: 18%
Inhibition (%) CDR1 (mouse DCR1; [8]): 21%
